Data set [1] has as its system isolated ileum of a guinea-pig. The data set is described as follows: Test on the isolated ileum of a guinea-pig (contraction, agonist activity). Particulars: Cavia porcellus, read-out: pD2 (converted).
Experimental: Fragments of the ileum of guinea-pigs killed by decapitation are removed. […] The contractions caused by the products are recorded using a sensor connected to a polygraph. The products under test are added, at concentrations comprised between 1.10^-3 M and 1.10^-8 M/l.
The products presenting a contracting effect are tested vis-a-vis atropine and hexamethonium to establish if the activity is of "muscarinic" or "nicotinic" type.
The possible antagonist activity of the products is tested vis-a-vis acetylcholine.
The agonist activity is expressed in pD2 (negative logarithm of the dose which produces 50% of the maximum effect).
Data set [2] deals with male mice (CD1 Charles Rivers). Description: Hypothermic activity (rectal body temperature). The note with it: Mus musculus; for ED (-1 C): read-out: Effective dose (-1° C.) O.R.; for ED (1 C fall in body temperature): sc, read-out: Effective dose (-1° C.) SC.R. In kind it is in vivo.
Experimental: The test is carried out on male mice (CD1 Charles Rivers) weighing 25 to 30 g, without food for 6 hours.
The body temperature is noted by means of a thermocouple placed about 1.5 cm inside the rectum and connected to an electric temperature recorder.
The products are administered by oral or sub-cutaneous route and the temperatures are noted at 0 and 30 minutes, one hour, 2 hours and 2 hours 30 minutes after treatment.
The degree of hypothermia is evaluated as the difference between the treated animals and the controls and the dose necessary to reduce the body temperature by 1° C. is determined.
The subject of data set [3] is male mice (CD1 Charles Rivers). Description: Diarrhoeic activity, oral. Particulars: for ED50: Mus musculus, po, read-out: DE50.
Experimental: The test is carried out on male mice (CD1 Charles Rivers) weighing 25 to 30 g, without food for 6 hours. The product at 5% in methocel is administered by oral route, by means of an oesophagus probe.
Control animals receive only the excipient.
The sheets of absorbent paper are changed after each observation.
1: slightly soft faeces with or without moist circle,
2: slightly soft faeces with presence of a well-defined moist circle,
3: soft faeces with presence of a large moist circle,
4: faeces without consistency with presence of a very large moist circle.
The next data set is described as follows: in vivo. The note with it: mouse, male mice, oral route, mortality during 7 days following treatment.
The mark [4] stands for this setting: negative logarithm of the dose which produces 50% of the maximum effect, Tyrode's solution at 37° C.
Where [5] appears, read: sub-cutaneous route, dose necessary to reduce the body temperature by 1° C.
Setting [6] is: oral route, dose necessary to reduce the body temperature by 1° C.

Each structure is given as a SMILES string. Read-outs that look alike come from different tables or passages of the source.

For orientation: LD50 means the dose at which mortality reaches 50%. Read a low LD50 as a more toxic substance.

Experimental for in vivo: The test is carried out on male mice (CD1 Charles Rivers) of 22 to 24 g, without food for 16 hours. […] The mortality is noted during the 7 days following treatment.

Consider `COC(=O)C1=CCCN(C)C1` [Aerocoline, HBr, reference compound], for which the EC50 in data set [1] is 331 nM. Moreover, in data set [2] (po), the ED (-1 C) is 194 mg/kg. Besides, the ED (1 C fall in body temperature) in data set [2] worked out at 3 mg/kg. For the same compound, in data set [3] (male mice, oral route, dose which causes diarrhoea in 50% of the animals), the DE50 was determined as 35 mg/kg.
In the case of `Cc1coc(C2=CCCNC2)n1.Cl` [Example 2, 3-(4-methyloxazol-2-yl)-1,2,5,6-tetrahydropyridine hydrochloride], in the data set “in vivo”, the LD50 at 168 h is 125 mg/kg. Also, in data set [1] (setting [4]), the EC50 was 1070 nM. The ED (1 C fall in body temperature) in data set [2] (setting [5]) turned out to be 1.7 mg/kg. In data set [2] (setting [6]), the ED (-1 C) came to 2.6 mg/kg. The ED50 in data set [3] amounted to 3 mg/kg.
In the data set “in vivo”, `C1=C(c2ncco2)CNCC1.Cl` [Example 6, 3-(oxazol-2-yl)-1,2,5,6-tetrahydropyridine hydrochloride] came in with an LD50 at 168 h of 200 mg/kg. In addition, the EC50 in data set [1] (setting [4]) was 1950 nM. Besides, the ED (1 C fall in body temperature) in data set [2] (setting [5]) worked out at 3.2 mg/kg. In addition, the ED (-1 C) in data set [2] (setting [6]) was determined as 3.2 mg/kg. Besides, in data set [3], the ED50 came to 15 mg/kg.
In the data set “in vivo”, `Cc1cnc(C2=CCCNC2)o1.Cl` [Example 8, 3-(5-methyloxazol-2-yl)-1,2,5,6-tetrahydropyridine hydrochloride] came in with an LD50 at 168 h of 500 mg/kg. Besides, the EC50 in data set [1] (setting [4]) was 5890 nM. Further, the ED (1 C fall in body temperature) in data set [2] (setting [5]) turned out to be 25 mg/kg. Also, the ED (-1 C) in data set [2] (setting [6]) turned out to be 24 mg/kg.
The compound `ON1CCC=C(c2ncco2)C1` [Example 10, 1-hydroxy-3-(oxazol-2-yl)-1,2,5,6-tetrahydropyridine] returned a 50% lethal dose (LD50) at 168 h in the data set “in vivo” of 300 mg/kg. The EC50 in data set [1] (setting [4]) is > 100000 nM. Also, the ED (1 C fall in body temperature) in data set [2] (setting [5]) was 4.1 mg/kg. Moreover, the ED (-1 C) in data set [2] (setting [6]) is 4.2 mg/kg. Also, the ED50 in data set [3] stood at 10 mg/kg.

Source of the values: US5053416A, “Derivatives of 1,2,5,6-tetrahydropyridine substituted by a thiazolyl or oxazolyl radical, their use as medicaments and compositions containing them” (Roussel Uclaf, priority 1988, dated 1991).
